The results in this text go back to patent publication US20260021085A1, “CYCLOALKYL CARBOXYLIC ACID DERIVATIVES AS INHIBITORS OF GLYCOGEN SYNTHASE 1 (GYS1) AND METHODS OF USE THEREOF” (Maze Therapeutics, Inc., priority 2022, published 2026).

The target of one assay is human GYS2 (Homo sapiens (Human), UniProt P54840). Briefly: GYS2 coupled enzyme assay (PK/LDH). It counts as biochemical. The note with it: recombinant hGYS2/GN1 protein; geometric mean of at least 2 assay runs. An excerpt: (§1) The GYS2 coupled enzyme assay is a kinetic biochemical assay that indirectly quantifies the rate of glycogen synthesis by coupling the conversion of GYS2 substrate UDP-glucose into UDP with downstream enzymatic reactions. UDP is released from UDP-glucose as glucose monomers are linked into the growing glycogen strand by GYS2. The coupled assay then proceeds with pyruvate kinase utilizing UDP and phospho (enol) pyruvate (PEP) to form pyruvate. Lactate dehydrogenase then converts pyruvate and NADH into lactate and NAD+. Oxidation of NADH to NAD+ can be measured continuously with a plate reader by quantifying the decrease in NADH absorbance at 340 nm over time.
human GYS2, sequence (P54840 whole entry): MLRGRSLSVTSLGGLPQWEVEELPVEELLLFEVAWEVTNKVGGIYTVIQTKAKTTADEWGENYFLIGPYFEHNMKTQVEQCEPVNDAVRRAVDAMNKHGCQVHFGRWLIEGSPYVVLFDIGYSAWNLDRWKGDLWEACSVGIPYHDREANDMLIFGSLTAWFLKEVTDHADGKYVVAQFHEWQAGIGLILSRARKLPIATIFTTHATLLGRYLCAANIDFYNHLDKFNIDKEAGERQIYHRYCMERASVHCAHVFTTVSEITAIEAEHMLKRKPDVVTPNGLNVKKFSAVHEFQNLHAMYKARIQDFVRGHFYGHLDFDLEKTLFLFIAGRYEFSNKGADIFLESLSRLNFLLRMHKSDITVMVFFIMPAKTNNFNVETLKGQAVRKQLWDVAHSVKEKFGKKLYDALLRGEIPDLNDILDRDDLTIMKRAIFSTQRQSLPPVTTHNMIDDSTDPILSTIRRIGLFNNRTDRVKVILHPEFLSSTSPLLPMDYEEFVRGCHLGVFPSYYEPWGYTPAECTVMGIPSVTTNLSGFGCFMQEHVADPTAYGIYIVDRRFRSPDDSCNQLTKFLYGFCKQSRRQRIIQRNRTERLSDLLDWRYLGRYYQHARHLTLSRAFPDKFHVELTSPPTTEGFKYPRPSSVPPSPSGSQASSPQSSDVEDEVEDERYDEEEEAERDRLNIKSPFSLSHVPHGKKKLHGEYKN
human GYS2, sequence (P46976 whole entry partner): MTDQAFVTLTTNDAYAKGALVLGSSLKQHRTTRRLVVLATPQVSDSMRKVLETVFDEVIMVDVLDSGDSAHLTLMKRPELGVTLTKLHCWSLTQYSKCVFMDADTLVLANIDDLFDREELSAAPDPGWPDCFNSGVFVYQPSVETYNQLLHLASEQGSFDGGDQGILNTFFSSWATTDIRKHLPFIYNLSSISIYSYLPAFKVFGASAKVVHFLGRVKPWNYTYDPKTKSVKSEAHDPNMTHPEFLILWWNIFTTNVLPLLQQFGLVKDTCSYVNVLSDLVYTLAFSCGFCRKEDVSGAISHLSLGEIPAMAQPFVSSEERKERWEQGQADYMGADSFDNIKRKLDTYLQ
Compounds that inhibit the hGYS2 enzyme and, subsequently, the downstream conversion of NADH to NAD+, were tested using assay ready plates (black, clear bottom 384 well plates) in a final DMSO reaction volume of 2.5% DMSO. The Assay Buffer contained 50 mM Tris pH 7.5, 2 mM MgCl2, and 100 mM KCl. Fresh stocks of BSA at a final concentration of 0.02% and TCEP 1 mM were added before splitting buffer into hGYS2 buffer and substrate buffer. To the hGYS2 buffer, rabbit liver glycogen was added at a final concentration of 0.2% glycogen. Glucose-6-Phosphate was added at 2 mM, recombinant hGYS2/GN1 protein was added at 200 nM to the substrate buffer, phosphoenolpyruvate (PEP) was added at 2 mM, UDP-Glucose was added at 2 mM, NADH was added at 0.6 mM, and Pyruvate Kinase/Lactate Dehydrogenase was added at 20 units/mL. The reaction was initiated by mixing hGYS2 buffer and substrate buffer at a 1:1 ratio. Both buffers were plated using a liquid dispensing device with hGYS2 buffer plated first followed by the substrate buffer. Plates were spun briefly to eliminate air bubbles and are immediately read in continuous mode at an absorbance of 340 nm, for 10 time points in one-minute increments, for a total of 10 minutes. The slope from these 10 time points was normalized to the positive and negative control wells.
(§2) Unless otherwise specified, IC50 values are reported as the geometric mean of at least 2 assay runs on separate days. […] Unless otherwise specified, IC50 values are reported as the geometric mean of at least two assay runs on separate days. Each run represents the average of a technical replicate, where each compound was assayed twice in the same plate.

Assay [1] addresses hGYS1 enzyme, glycogen synthesis in HeLa cells (Homo sapiens (Human), UniProt P13807). Description: GYS1 cell based assay (glycogen synthesis in HeLa cells, Glucose-glo). Particulars: starved HeLa cells, 24 h incubation; geometric mean of at least 2 assay runs; read-out: Cellular IC50.
Excerpt: The GYS1 cell based assay is a bioluminescent assay that quantifies the glucose resulting from glycogen digestion; the quantified glucose is an indirect measure of GYS1 glycogen synthesis. Newly synthesized glycogen is digested using Glucoamylase; the resulting glucose is quantified by using the Glucose-glo assay kit from Promega. Glucose-glo works by coupling glucose oxidation and NADH production with a bioluminescent system that is activated with NADH. Glucose is oxidized by Glucose dehydrogenase and the reaction reduces NAD+ to NADH; NADH activates Reductase which reduces a pro-luciferin Reductase Substrate to luciferin. Luciferin is detected in a luciferase reaction using Ultra-Glo rLuciferase and ATP, and the luminesce produced is proportional to the glucose in the sample. The luminescence is measured as a single point read in a plate reader.
Compounds that inhibit the hGYS1 enzyme and, subsequently, the glycogen synthesis in cells, were tested using assay ready plates (white, clear bottom 384 well plates) in a final DMSO reaction volume of 1% DMSO. Compounds in the assay ready plates were mixed with media with no additives, except for 20 mM glucose prior to cell addition. HeLa cells were starved in media with no additives, except for 1× Glutamax for 24 h. Starved HeLa cells were plated, in a 1:1 ratio to the media in the assay ready plate and incubated for 24 h at 37° C. and 5% CO2. Cells were washed in 1×PBS buffer and lysed in lysis buffer containing 50% 1×PBS and 25% 0.3 N HCl of the final volume in the well or reaction volume; cells were incubated with lysis buffer for 10 minutes and quenched with the remaining 25% of the reaction volume that consisted of 450 mM Tris pH 8.0. Lysates were mixed in a 1:1 ratio with Glucoamylase in 100 mM Sodium Acetate buffer, pH 5.3; the mixture was incubated for 1 h at 37° C. The digested lysate was mixed in a 1:1 ratio with Glucose-glo detection mixture as per vendor recommendations (Luciferase detection buffer, Reductase, Reductase substrate, Glucose dehydrogenase, and NAD) in read-out plates (solid white 384-well plates) and incubated for 1 h at RT. The plates were read using a plate reader with luminescence capabilities. Each compound concentration Relative Luminescence Unit (RLU) was averaged and normalized to the average RLU of the positive and negative controls to obtain a percentage inhibition. The normalized data vs. concentration was plotted; to determine the half-maximal concentration (IC50), the Levenberg-Marquardt algorithm was used to fit a Hill equation to the dose response data.
as §2

In a further assay the target is human GYS1 (Homo sapiens (Human), UniProt P13807). Description: GYS1 coupled enzyme assay (PK/LDH). It counts as biochemical. The note with it: recombinant hGYS1/GN1 protein; geometric mean of at least 2 assay runs.
human GYS1, sequence (P13807 whole entry): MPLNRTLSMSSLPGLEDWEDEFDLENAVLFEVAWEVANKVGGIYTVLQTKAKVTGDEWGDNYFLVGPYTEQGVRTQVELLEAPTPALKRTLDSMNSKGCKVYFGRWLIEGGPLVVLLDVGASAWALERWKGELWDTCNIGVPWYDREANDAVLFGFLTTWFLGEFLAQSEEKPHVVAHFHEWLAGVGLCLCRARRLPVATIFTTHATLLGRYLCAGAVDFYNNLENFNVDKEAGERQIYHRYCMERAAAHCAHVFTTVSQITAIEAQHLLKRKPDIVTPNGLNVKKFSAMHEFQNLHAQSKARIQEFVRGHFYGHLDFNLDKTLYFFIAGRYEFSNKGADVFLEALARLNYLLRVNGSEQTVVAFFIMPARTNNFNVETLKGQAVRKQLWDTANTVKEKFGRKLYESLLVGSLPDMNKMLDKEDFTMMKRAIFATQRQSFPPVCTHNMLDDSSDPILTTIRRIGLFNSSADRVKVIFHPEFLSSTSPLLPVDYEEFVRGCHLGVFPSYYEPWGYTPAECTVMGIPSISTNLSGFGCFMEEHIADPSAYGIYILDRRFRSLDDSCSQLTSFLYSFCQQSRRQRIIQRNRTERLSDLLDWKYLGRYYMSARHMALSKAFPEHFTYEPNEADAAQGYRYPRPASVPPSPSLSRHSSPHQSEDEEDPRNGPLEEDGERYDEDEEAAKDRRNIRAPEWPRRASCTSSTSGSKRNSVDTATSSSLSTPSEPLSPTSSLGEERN
human GYS1, sequence (P46976 whole entry partner): as the sequence (P46976 whole entry partner) above
Excerpt: as §1, with “GYS1” for “GYS2”, “GYS1.” for “GYS2.”
Compounds that inhibit the hGYS1 enzyme and, subsequently, the downstream conversion of NADH to NAD+, were tested using assay ready plates (black, clear bottom 384 well plates) in a final DMSO reaction volume of 2.5% DMSO. The Assay Buffer contained 50 mM Tris pH 7.5, 2 mM MgCl2, and 100 mM KCl. Fresh stocks of BSA at a final concentration of 0.02% and TCEP at 1 mM were added before splitting buffer into hGYS1 buffer and substrate buffer. To the hGYS1 buffer, rabbit liver glycogen was added at a final concentration of 0.2% glycogen. Glucose-6-Phosphate was added at 1 mM, recombinant hGYS1/GN1 protein was added at 50 nM to the substrate buffer, phosphoenolpyruvate (PEP) was added at 2 mM, UDP-Glucose was added at 0.8 mM, NADH) was added at 0.6 mM, and Pyruvate Kinase/Lactate Dehydrogenase was added at 20 units/mL. The reaction was initiated by mixing hGYS1 buffer and substrate buffer at a 1:1 ratio. Both buffers were plated using a liquid dispensing device with hGYS1 buffer plated first followed by the substrate buffer. Plates were spun briefly to eliminate air bubbles and are immediately read in continuous mode at an absorbance of 340 nm, for 10 time points in one-minute increments, for a total of 10 minutes. The slope from these 10 time points was normalized to the positive and negative control wells.
Unless otherwise specified, IC50 values are reported as the geometric mean of at least 2 assay runs on separate days. Each run represents the average of a technical replicate, where each compound was assayed twice in the same plate.

hGYS1 enzyme, glycogen synthesis in HeLa cells, sequence (P13807 whole entry): as the sequence (P13807 whole entry) above

Turning to `O=C(O)[C@H]1CCC[C@H]1C(=O)N[C@@H](c1ccccc1)c1ccc(C2CC2)c(F)c1` [Compound 17, (1S,2R)-2-(((S)-(4-cyclopropyl-3-fluorophenyl)(phenyl)methyl)carbamoyl)cyclopentane-1-carboxylic acid], the IC50 on human GYS2 is over 100 µM; in assay [1], 27.3 µM; on human GYS1, 1.58 µM.
For `O=C(O)[C@H]1CCC[C@H]1C(=O)N[C@@H](c1ccccc1)c1ccc(C2CCC2)c(F)c1` [Compound 18, (1S,2R)-2-(((S)-(4-cyclobutyl-3-fluorophenyl)(phenyl)methyl)carbamoyl)cyclopentane-1-carboxylic acid], in that order: 28.6 µM, 16.6 µM and 0.384 µM.
As for `Cc1ccccc1[C@H](NC(=O)[C@@H]1CCC[C@@H]1C(=O)O)c1ccc(C(C)C)cn1` [Compound 22, (1S,2R)-2-(((S)-(5-isopropylpyridin-2-yl)(o-tolyl)methyl)carbamoyl)cyclopentane-1-carboxylic acid], the IC50 was found to be 66.7 µM on human GYS2, 13.9 µM in assay [1] and 1.27 µM on human GYS1.
In the same order, the values of `Cc1ccccc1[C@H](NC(=O)[C@@H]1CCC[C@@H]1C(=O)O)c1ccc(C(C)C)c(F)c1` [Compound 23, (1S,2R)-2-(((R)-(3-fluoro-4-isopropylphenyl)(o-tolyl)methyl)carbamoyl)cyclopentane-1-carboxylic acid] are 8.48 µM, 5.36 µM and 0.166 µM.
In the same order, the values of `Cc1ccccc1[C@H](NC(=O)[C@@H]1CCC[C@@H]1C(=O)O)c1ccc(C2CC2)cc1` [Compound 26, (1S,2R)-2-(((R)-(4-cyclopropylphenyl)(o-tolyl)methyl)carbamoyl)cyclopentane-1-carboxylic acid] are 15.5 µM, 21.6 µM and 0.795 µM.
In the same order, the values of `CC(C)c1ccc([C@@H](NC(=O)[C@@H]2CCC[C@@H]2C(=O)O)c2ccn[nH]2)cc1F` [Compound 27, (1S,2R)-2-(((R)-(3-fluoro-4-isopropylphenyl)(1H-pyrazol-5-yl)methyl)carbamoyl)cyclopentane-1-carboxylic acid] are over 100 µM, 46.3 µM and 1.48 µM.
Regarding `CC(C)c1ccc([C@@H](NC(=O)[C@@H]2CCC[C@@H]2C(=O)O)c2cccc3c2NC(=O)CC3)cc1` [Compound 31, (1S,2R)-2-(((R)-(4-isopropylphenyl)(2-oxo-1,2,3,4-tetrahydroquinolin-8-yl)methyl)carbamoyl)cyclopentane-1-carboxylic acid], the results for the IC50 (on human GYS2; in assay [1]; on human GYS1) were over 100 µM, 12.3 µM and 1.09 µM, respectively.
As to `CC(C)c1ccc([C@@H](NC(=O)[C@@H]2CCC[C@@H]2C(=O)O)c2ccccc2)cc1F` [Compound 37, (1S,2R)-2-(((S)-(3-fluoro-4-isopropylphenyl)(phenyl)methyl)carbamoyl)cyclopentane-1-carboxylic acid], the half-inhibitory concentration (IC50) worked out at 72.8 µM at human GYS2, 3.69 µM in assay [1] and 0.236 µM at human GYS1.
For `COc1ccccc1[C@H](NC(=O)[C@@H]1CCC[C@@H]1C(=O)O)c1ccc(C(C)C)cc1` [Compound 39, (1S,2R)-2-(((R)-(4-isopropylphenyl)(2-methoxyphenyl)methyl)carbamoyl)cyclopentane-1-carboxylic acid], in that order: 66.4 µM, 41.3 µM and 3.4 µM.
For `CC(C)c1ccc([C@@H](NC(=O)[C@@H]2CCC[C@@H]2C(=O)O)c2cccs2)cc1` [Compound 45, (1S,2R)-2-(((R)-(4-isopropylphenyl)(thiophen-2-yl)methyl)carbamoyl)cyclopentane-1-carboxylic acid], in that order: 98 µM, 6.6 µM and 0.364 µM.

A word on the IC50: it is the concentration at which inhibition is half-maximal.
